Source: ChEMBL document CHEMBL5360532, “Current scenario of quinolone hybrids with potential antibacterial activity against ESKAPE pathogens” (Eur J Med Chem, 2023)
Converted amounts (≈) assume the structure as drawn.

Key:
Staphylococcus aureus [1] = test: Antibacterial activity against Staphylococcus aureus Newman assessed as bacterial growth inhibition by agar diffusion assay; type: functional
Escherichia coli [2] = test: Antibacterial activity against Escherichia coli DSM-1116 assessed as bacterial growth inhibition by agar diffusion assay; type: functional
Escherichia coli [3] = test: Antibacterial activity against efflux deficient Escherichia coli TolC assessed as bacterial growth inhibition by agar diffusion assay; type: functional
Pseudomonas aeruginosa [4] = test: Antibacterial activity against efflux deficient Pseudomonas aeruginosa PA14 assessed as bacterial growth inhibition by agar diffusion assay; type: functional
Pseudomonas aeruginosa [5] = test: Antibacterial activity against efflux deficient Pseudomonas aeruginosa DSM-30104 assessed as bacterial growth inhibition by agar diffusion assay; type: functional
Proteus mirabilis = test: Antibacterial activity against efflux deficient Proteus mirabilis DSM-4479 assessed as bacterial growth inhibition by agar diffusion assay; type: functional
Staphylococcus aureus [6] = test: Antibacterial activity against Staphylococcus aureus assessed as bacterial growth inhibition measured after 16 to 24 hrs by broth microdilution assay; type: functional; conditions: time 16-24 hrs
Staphylococcus aureus [7] = test: Antibacterial activity against methicillin resistant Staphylococcus aureus assessed as bacterial growth inhibition measured after 16 to 24 hrs by broth microdilution assay; type: functional; conditions: time 16-24 hrs
Enterococcus = test: Antibacterial activity against vancomycin resistant Enterococcus assessed as bacterial growth inhibition measured after 16 to 24 hrs by broth microdilution assay; type: functional; conditions: time 16-24 hrs
Streptococcus pneumoniae [8] = test: Antibacterial activity against Streptococcus pneumoniae assessed as bacterial growth inhibition measured after 16 to 24 hrs by broth microdilution assay; type: functional; conditions: time 16-24 hrs
Streptococcus agalactiae = test: Antibacterial activity against Streptococcus agalactiae assessed as bacterial growth inhibition measured after 16 to 24 hrs by broth microdilution assay; type: functional; conditions: time 16-24 hrs
Enterococcus faecalis [9] = test: Antibacterial activity against Enterococcus faecalis assessed as bacterial growth inhibition measured after 16 to 24 hrs by broth microdilution assay; type: functional; conditions: time 16-24 hrs
Haemophilus influenzae = test: Antibacterial activity against Haemophilus influenzae assessed as bacterial growth inhibition measured after 16 to 24 hrs by broth microdilution assay; type: functional; conditions: time 16-24 hrs
Staphylococcus aureus [10] = test: Antibacterial activity against Staphylococcus aureus clinical isolates assessed as bacterial growth inhibition measured after 16 to 24 hrs by broth microdilution assay; type: functional; conditions: time 16-24 hrs
[11] = system: Staphylococcus haemolyticus; test: Antibacterial activity against Staphylococcus haemolyticus clinical isolates assessed as bacterial growth inhibition measured after 16 to 24 hrs by broth microdilution assay; type: functional; conditions: time 16-24 hrs
[12] = system: Staphylococcus epidermidis; test: Antibacterial activity against Staphylococcus epidermidis clinical isolates assessed as bacterial growth inhibition measured after 16 to 24 hrs by broth microdilution assay; type: functional; conditions: time 16-24 hrs
Streptococcus suis = test: Antibacterial activity against Streptococcus suis clinical isolates assessed as bacterial growth inhibition measured after 16 to 24 hrs by broth microdilution assay; type: functional; conditions: time 16-24 hrs
Streptococcus pneumoniae [13] = test: Antibacterial activity against Streptococcus pneumoniae clinical isolates assessed as bacterial growth inhibition measured after 16 to 24 hrs by broth microdilution assay; type: functional; conditions: time 16-24 hrs
Enterococcus faecalis [14] = test: Antibacterial activity against Enterococcus faecalis clinical isolates assessed as bacterial growth inhibition measured after 16 to 24 hrs by broth microdilution assay; type: functional; conditions: time 16-24 hrs
Enterococcus faecium = test: Antibacterial activity against Enterococcus faecium clinical isolates assessed as bacterial growth inhibition measured after 16 to 24 hrs by broth microdilution assay; type: functional; conditions: time 16-24 hrs
Haemophilus parasuis = test: Antibacterial activity against Haemophilus parasuis clinical isolates assessed as bacterial growth inhibition measured after 16 to 24 hrs by broth microdilution assay; type: functional; conditions: Glaesserella parasuis; time 16-24 hrs
Staphylococcus aureus [15] = test: Antibacterial activity against Staphylococcus aureus assessed as bacterial growth inhibition measured after 24 hrs by agar cup diffusion assay; type: functional
Escherichia coli [16] = test: Antibacterial activity against Escherichia coli assessed as bacterial growth inhibition measured after 24 hrs by agar cup diffusion assay; type: functional
Pseudomonas aeruginosa [17] = test: Antibacterial activity against Pseudomonas aeruginosa assessed as bacterial growth inhibition measured after 24 hrs by agar cup diffusion assay; type: functional
Candida albicans = test: Antifungal activity against Candida albicans assessed as fungal growth inhibition measured after 24 hrs by agar cup diffusion assay; type: functional
[18] = system: Mycobacterium tuberculosis; test: Antimycobacterial activity against Mycobacterium tuberculosis H37Rv assessed as zone of inhibition at 50 mg/ml by agar well diffusion assay; type: functional; conditions: read-out: IZ
Staphylococcus aureus [19] = test: Antibacterial activity against Staphylococcus aureus assessed as zone of inhibition at 50 mg/ml by agar well diffusion assay; type: functional; conditions: read-out: IZ
Escherichia coli [20] = test: Antibacterial activity against Escherichia coli assessed as zone of inhibition at 50 mg/ml by agar well diffusion assay; type: functional; conditions: read-out: IZ
Enterococcus faecalis [21] = test: Antibacterial activity against Enterococcus faecalis assessed as zone of inhibition at 50 mg/ml by agar well diffusion assay; type: functional; conditions: read-out: IZ
Streptococcus pneumoniae [22] = test: Antibacterial activity against Streptococcus pneumoniae assessed as zone of inhibition at 50 mg/ml by agar well diffusion assay; type: functional; conditions: read-out: IZ
[23] = system: Mycobacterium tuberculosis; test: Antimycobacterial activity against Mycobacterium tuberculosis H37Rv assessed as bacterial growth inhibition; type: functional
Escherichia coli [24] = test: Antibacterial activity against Escherichia coli ATCC 10536 assessed as bacterial growth inhibition measured after 24 to 48 hrs by agar dilution assay; type: functional; conditions: time 24-48 hrs
Pseudomonas aeruginosa [25] = test: Antibacterial activity against Pseudomonas aeruginosa ATCC 11632 assessed as bacterial growth inhibition measured after 24 to 48 hrs by agar dilution assay; type: functional; conditions: time 24-48 hrs
[26] = Anticancer activity against EAC cell assessed as cell growth inhibition measured after 24 to 72 hrs by MTT assay; type: functional, cell-based; conditions: Ehrlich
MCF7 = test: Anticancer activity against human MCF7 cell assessed as cell growth inhibition measured after 24 to 72 hrs by MTT assay; type: functional, cell-based
HT-29 = test: Anticancer activity against human HT-29 cell assessed as cell growth inhibition measured after 24 to 72 hrs by MTT assay; type: functional, cell-based
WRL68 = test: Anticancer activity against human WRL68 cell assessed as cell growth inhibition measured after 24 to 72 hrs by MTT assay; type: functional, cell-based
Staphylococcus aureus [27] = test: Antibacterial activity against Staphylococcus aureus assessed as bacterial growth inhibition by serial dilution method; type: functional
Pseudomonas aeruginosa [28] = test: Antibacterial activity against Pseudomonas aeruginosa assessed as bacterial growth inhibition by serial dilution method; type: functional
Acinetobacter baumannii [29] = test: Antibacterial activity against Acinetobacter baumannii assessed as bacterial growth inhibition by serial dilution method; type: functional
Escherichia coli [30] = test: Antibacterial activity against Escherichia coli assessed as bacterial growth inhibition by serial dilution method; type: functional
Klebsiella pneumoniae [31] = test: Antibacterial activity against Klebsiella pneumoniae assessed as bacterial growth inhibition by serial dilution method; type: functional
Escherichia coli [32] = test: Antibacterial activity against Escherichia coli assessed as bacterial growth inhibition by broth microdilution assay; type: functional
Pseudomonas aeruginosa [33] = test: Antibacterial activity against Pseudomonas aeruginosa assessed as bacterial growth inhibition by broth microdilution assay; type: functional
Acinetobacter baumannii [34] = test: Antibacterial activity against Acinetobacter baumannii assessed as bacterial growth inhibition by broth microdilution assay; type: functional
Klebsiella pneumoniae [35] = test: Antibacterial activity against Klebsiella pneumoniae assessed as bacterial growth inhibition by broth microdilution assay; type: functional
Escherichia coli [36] = test: Antibacterial activity against Escherichia coli ATCC 25922 assessed as bacterial growth inhibition by agar dilution assay; type: functional
Staphylococcus aureus [37] = test: Antibacterial activity against Staphylococcus aureus ATCC 6538p assessed as bacterial growth inhibition by agar dilution assay; type: functional
Aspergillus niger = test: Antifungal activity against Aspergillus niger assessed as fungal growth inhibition by agar cup diffusion assay; type: functional
Aspergillus fumigatus = test: Antifungal activity against Aspergillus fumigatus assessed as fungal growth inhibition by agar cup diffusion assay; type: functional

Q: Which results are given for `N#Cc1c(-c2ccccc2)nc(SCC(=O)N2CCN(c3cc4c(cc3F)c(=O)c(C(=O)O)cn4C3CC3)CC2)[nH]c1=O`?
A: MIC (Staphylococcus aureus [1]): ≤ 0.03 µg/mL; MIC (Escherichia coli [2]): ≤ 0.03 µg/mL; MIC (Escherichia coli [3]): ≤ 0.03 µg/mL; MIC (Pseudomonas aeruginosa [4]): ≤ 0.03 µg/mL; MIC (Pseudomonas aeruginosa [5]): ≤ 0.03 µg/mL; MIC (Proteus mirabilis): ≤ 0.03 µg/mL

Q: Which MIC (Staphylococcus aureus [6]) does the source give for `C[C@H]1CCc2c(N3CCC(O)(COc4ccc(N5C[C@H](CO)OC5=O)cc4F)CC3)c(F)cc3c(=O)c(C(=O)O)cn1c23` here?
A: Its MIC is 0.016 µg/mL (≈ 0.0267 µM).

Q: And the MIC (Staphylococcus aureus [7])?
A: Its MIC is 0.016 µg/mL (≈ 0.0267 µM).

Q: And the MIC (Enterococcus)?
A: The MIC was 0.016 µg/mL (≈ 0.0267 µM).

Q: And the MIC (Streptococcus pneumoniae [8])?
A: The MIC was 0.016 µg/mL (≈ 0.0267 µM).

Q: What about the MIC (Streptococcus agalactiae) of the same compound?
A: Its MIC is 0.016 µg/mL (≈ 0.0267 µM).

Q: And the MIC (Enterococcus faecalis [9])?
A: Its MIC is 0.016 µg/mL (≈ 0.0267 µM).

Q: And the MIC (Haemophilus influenzae)?
A: The MIC was 0.016 µg/mL (≈ 0.0267 µM).

Q: What about the MIC (Staphylococcus aureus [10]) of the same compound?
A: The MIC was at most 0.063 µg/mL.

Q: And the MIC [11]?
A: The MIC was at most 0.063 µg/mL.

Q: What about the MIC [12] of the same compound?
A: Its MIC is at most 0.063 µg/mL.

Q: What about the MIC (Streptococcus suis) of the same compound?
A: Its MIC is at most 0.063 µg/mL.

Q: And the MIC (Streptococcus pneumoniae [13])?
A: The MIC was at most 0.063 µg/mL.

Q: And the MIC (Enterococcus faecalis [14])?
A: The MIC was at most 0.063 µg/mL.

Q: What about the MIC (Enterococcus faecium) of the same compound?
A: Its MIC is at most 0.063 µg/mL.

Q: And the MIC (Haemophilus parasuis)?
A: Its MIC is at most 0.063 µg/mL.

Q: What does the source list for `O=C(/C=C/c1ccc(F)cc1)c1ccc(NC(=O)N2CCN(c3cc4c(cc3F)c(=O)c(C(=O)O)cn4C3CC3)CC2)cc1`?
A: MIC (Staphylococcus aureus [15]): 0.53 µg/mL (≈ 0.885 µM); MIC (Escherichia coli [16]): 0.53 µg/mL (≈ 0.885 µM); MIC (Pseudomonas aeruginosa [17]): 0.53 µg/mL (≈ 0.885 µM); MIC (Candida albicans): 2.03 µg/mL (≈ 3.39 µM)

Q: Which results are given for `CCn1cc(-c2nnc(S(=O)(=O)Cc3ccc(OC)cc3)o2)c(=O)c2cc(F)c(N3CCN(C)CC3)cc21`?
A: zone of inhibition at 50000 µg/mL [18]: 26 mm; zone of inhibition at 50000 µg/mL (Staphylococcus aureus [19]): 26 mm; zone of inhibition at 50000 µg/mL (Escherichia coli [20]): 26 mm; zone of inhibition at 50000 µg/mL (Enterococcus faecalis [21]): 26 mm; zone of inhibition at 50000 µg/mL (Streptococcus pneumoniae [22]): 26 mm; MIC [23]: 16.2 µg/mL (≈ 29.9 µM)

Q: For `O=C(CNc1ccc(-c2nc3ccc(Cl)c(Cl)c3s2)cc1)c1c(O)c2ccccc2n(-c2ccccc2)c1=O`, which MIC (Escherichia coli [24]) is on record?
A: The MIC was 0.5 µg/mL (≈ 0.873 µM).

Q: And the MIC (Pseudomonas aeruginosa [25])?
A: Its MIC is 1 µg/mL (≈ 1.75 µM).

Q: What about the IC50 [26] of the same compound?
A: Its IC50 is 398 nM.

Q: And the IC50 (MCF7)?
A: The IC50 was 398 nM.

Q: What about the IC50 (HT-29) of the same compound?
A: The IC50 was 398 nM.

Q: And the IC50 (WRL68)?
A: The IC50 was 398 nM.

Q: For `Cc1ccc(/N=C(\N2CCN(c3cc4c(cc3F)c(=O)c(C(=O)O)cn4C3CC3)CC2)C(F)(F)F)cc1`, which MIC (Staphylococcus aureus [27]) is on record?
A: Its MIC is 0.039 µg/mL (≈ 0.0755 µM).

Q: And the MIC (Pseudomonas aeruginosa [28])?
A: The MIC was 0.039 µg/mL (≈ 0.0755 µM).

Q: What about the MIC (Acinetobacter baumannii [29]) of the same compound?
A: Its MIC is 0.039 µg/mL (≈ 0.0755 µM).

Q: What about the MIC (Escherichia coli [30]) of the same compound?
A: The MIC was 0.039 µg/mL (≈ 0.0755 µM).

Q: And the MIC (Klebsiella pneumoniae [31])?
A: Its MIC is 0.039 µg/mL (≈ 0.0755 µM).

Q: Which MIC (Escherichia coli [32]) does the source give for `Cc1[nH]c(C(=O)Nc2nc3ccc(NC(=O)CCN4CCN(c5cc6c(cc5F)c(=O)c(C(=O)O)cn6C5CC5)CC4)cc3s2)c(Cl)c1Cl` here?
A: Its MIC is 4 ng/mL (≈ 0.0055 µM).

Q: And the MIC (Pseudomonas aeruginosa [33])?
A: The MIC was 0.25 µg/mL (≈ 0.344 µM).

Q: And the MIC (Acinetobacter baumannii [34])?
A: Its MIC is 0.25 µg/mL (≈ 0.344 µM).

Q: And the MIC (Klebsiella pneumoniae [35])?
A: The MIC was 0.25 µg/mL (≈ 0.344 µM).

Q: What does the source list for `Cc1cc(N2CCN(c3cc4c(cc3F)c(=O)c(C(=O)O)cn4C3CC3)CC2)nc(Cl)n1`?
A: MIC (Escherichia coli [36]): 10.5 µg/mL (≈ 22.9 µM); MIC (Staphylococcus aureus [37]): 7.4 µg/mL (≈ 16.2 µM)

Q: Which results are given for `CC(=O)N1CCN(c2ccc(OCC3COC(Cn4ccnc4)(c4ccc(Cl)cc4Cl)O3)cc2)CC1` (stereo unspecified) [KETOCONAZOLE]?
A: MIC (Aspergillus niger): 10.8 µg/mL (≈ 20.3 µM); MIC (Aspergillus fumigatus): 11.4 µg/mL (≈ 21.5 µM); MIC (Candida albicans): 2.6 µg/mL (≈ 4.89 µM)
